Measurements as given in ChEMBL document CHEMBL4837225, “Water-soluble derivatives of evodiamine: Discovery of evodiamine-10-phosphate as an orally active antitumor lead compound” (Eur J Med Chem, 2021).
Converted amounts (≈) assume the structure as drawn. The source made the active and inactive calls. The calls are words filed in the database; no cut-off is given here.

What was measured:
[1] = Toxicity in BALB/c nude mouse xenografted with human HCT-116 cells assessed as effect on body weight at 150 mg/kg, po bid for 21 days relative to control; assay type: organism-based; conditions: in vivo, 504 h, time 21 day
[2] = target: T1, DNA topoisomerase 1 (Homo sapiens) (UniProt P11387); assay: Inhibition of TOP1 (unknown origin) assessed as decrease in relaxation of supercoiled DNA using pBR322 plasmid DNA by ethidium bromide staining based gel electrophoresis
T1 sequence (whole entry): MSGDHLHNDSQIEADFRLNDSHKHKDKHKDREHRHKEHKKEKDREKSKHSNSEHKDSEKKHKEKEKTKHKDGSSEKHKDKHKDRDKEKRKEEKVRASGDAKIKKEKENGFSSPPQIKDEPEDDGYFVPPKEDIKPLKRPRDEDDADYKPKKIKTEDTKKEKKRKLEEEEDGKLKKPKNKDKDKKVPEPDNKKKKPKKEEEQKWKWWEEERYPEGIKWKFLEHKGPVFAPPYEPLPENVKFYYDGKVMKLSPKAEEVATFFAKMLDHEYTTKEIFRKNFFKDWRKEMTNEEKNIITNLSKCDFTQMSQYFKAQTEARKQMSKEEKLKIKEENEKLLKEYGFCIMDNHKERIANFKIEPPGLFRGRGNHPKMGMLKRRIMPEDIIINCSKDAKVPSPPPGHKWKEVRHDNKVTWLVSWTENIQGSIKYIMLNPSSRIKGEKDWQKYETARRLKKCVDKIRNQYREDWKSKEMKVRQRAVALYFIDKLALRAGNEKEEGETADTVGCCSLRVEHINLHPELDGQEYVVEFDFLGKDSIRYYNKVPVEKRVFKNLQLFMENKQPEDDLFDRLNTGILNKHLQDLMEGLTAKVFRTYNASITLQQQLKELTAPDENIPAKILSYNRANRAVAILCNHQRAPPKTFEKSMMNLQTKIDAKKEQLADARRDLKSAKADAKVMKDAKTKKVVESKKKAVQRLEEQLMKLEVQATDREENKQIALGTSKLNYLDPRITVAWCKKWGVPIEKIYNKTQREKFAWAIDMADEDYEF

HCT-116 [3] = assay: Induction of apoptosis in human HCT-116 cells assessed as increase in caspase-3 level at 0.2 to 5 uM measured after 24 hrs by Western blot analysis; assay type: functional, cell-based; conditions: dose 0.2-5 µM
[4] = Solubility of the compound in double distilled water; assay type: physicochemical
HCT-116 [5] = assay: Induction of apoptosis in human HCT-116 cells assessed as early apoptotic cells level at 0.05 uM incubated for 48 hrs by annexin V-FITC/propidium iodide staining based flow cytometry (reference value: 2.02%); assay type: functional
HCT-116 [6] = assay: Antitumor activity against human HCT-116 cells xenografted in BALB/c nude mouse assessed as necrosis at 150 mg/kg, po bid by H&E staining based light microscopic analysis; assay type: functional, organism-based
HCT-116 [7] = assay: Induction of apoptosis in human HCT-116 cells assessed as increase in p-53 level at 0.2 to 5 uM measured after 24 hrs by Western blot analysis; assay type: functional, cell-based; conditions: dose 0.2-5 µM
HCT-116 [8] = assay: Cell cycle arrest in human HCT-116 cells assessed as accumulation at G1 phase at 0.5 uM incubated for 24 hrs by propidium iodide staining based flow cytometric analysis (Rvb =35.7 %); assay type: functional
[9] = Solubility of the compound in PBS buffer at pH 7.4; assay type: physicochemical
[10] = Toxicity in BALB/c nude mouse xenografted with human HCT-116 cells assessed as effect on body weight at 60 mg/kg, po bid for 21 days relative to control; assay type: organism-based; conditions: in vivo, 504 h, time 21 day

In the case of `CN1c2ccccc2C(=O)N2CCc3c([nH]c4ccc(OP(=O)(O)O)cc34)C21` (stereo not given), the Activity [1] is reported as “Toxic”, the inhibition [2] is reported as “Dose-Dependent Effect” and the Activity (HCT-116 [3]) is reported as “Active”. For the same compound, the solubility [4] was 36 µg/mL (≈ 90.1 µM), the Activity (HCT-116 [5]) was 15.1% and the Activity (HCT-116 [6]) was “Active”. For the same compound, the Activity (HCT-116 [7]) was “Active”, the Activity (HCT-116 [8]) was 4.3% and the solubility [9] was greater than 1000 µg/mL. The Activity [10] was “Non-Toxic”.
